# Test results from US20080306056A1, “PYRAZOLE-DERIVATIVES AS FACTOR Xa INHIBITORS” (SANOFI-AVENTIS DEUTSCHLAND GMBH, priority 2002, published 2008).
# Molecular target: T1, human factor Xa (Homo sapiens, UniProt P00742)
# T1 construct: 25 μl human factor Xa (Enzyme Research Laboratories, Inc; South Bend, Ind.); purchased Enzyme Research Laboratories, Inc; South Bend, Ind
# Assay: Factor Xa assay (chromogenic, purified enzyme)
# Format: biochemical
# Settings: inhibition constant for factor Xa; chromogenic substrate S-2765 140 μM, enzyme 0.5 nM, 25° C., pH 7.8; Ki=IC50/{1+(substrate concentration/Km)}; read-out: Ki(FXa)
# Text: The ability of the compound of formulae I, Ib and Ic to inhibit factor Xa or factor VIIa or other enzymes like thrombin, plasmin, or trypsin can be assessed by determining the concentration of the compound of the formulae I, Ib and Ic that inhibits enzyme activity by 50%, i.e. the IC50 value, which was related to the inhibition constant Ki. Purified enzymes were used in chromogenic assays. The concentration of inhibitor that causes a 50% decrease in the rate of substrate hydrolysis was determined by linear regression after plotting the relative rates of hydrolysis (compared to the uninhibited control) versus the log of the concentration of the compound of formulae I, Ib and Ic. For calculating the inhibition constant Ki, the IC50 value was corrected for competition with substrate using the formula wherein Km is the Michaelis-Menten constant (Chen and Prusoff, Biochem.
# Ki=IC50/{1+(substrate concentration/Km)}
# Pharmacol. 22 (1973) 3099-3108; I. H. Segal, Enzyme Kinetics, 1975, John Wiley & Sons, New York, 100-125; which were incorporated herein by reference).
# The IC50 was determined by combining in appropriate wells of a Costar half-area microtiter plate 25 μl human factor Xa (Enzyme Research Laboratories, Inc.; South Bend, Ind.) in TBS-PEG; 40 μl 10% (v/v) DMSO in TBS-PEG (uninhibited control) or various concentrations of the compound to be tested diluted in 10% (v/v) DMSO in TBS-PEG; and substrate S-2765 (N(α)-benzyloxycarbonyl-D-Arg-Gly-L-Arg-p-nitroanilide; Kabi Pharmacia, Inc.; Franklin, Ohio) in TBS-PEG.
# The assay was performed by pre-incubating the compound of formulae I, Ib and Ic plus enzyme for 10 min. Then the assay was initiated by adding substrate to obtain a final volume of 100 μl. The initial velocity of chromogenic substrate hydrolysis was measured by the change in absorbance at 405 nm using a Bio-tek Instruments kinetic plate reader (Ceres UV900HDi) at 25° C. during the linear portion of the time course (usually 1.5 min after addition of substrate). The enzyme concentration was 0.5 nM and substrate concentration was 140 μM.
# The inhibitory activity towards factor VIIa/tissue factor activity was determined using a chromogenic assay essentially as described previously (J. A. Ostrem et al., Biochemistry 37 (1998) 1053-1059 which was incorporated herein by reference). Kinetic assays were conducted at 25° C. in half-area microtiter plates (Costar Corp., Cambridge, Mass.) using a kinetic plate reader (Molecular Devices Spectramax 250). A typical assay consisted of 25 μl human factor VIIa and TF (5 nM and 10 nM, respective final concentration) combined with 40 μl of inhibitor dilutions in 10% DMSO/TBS-PEG buffer (50 mM Tris, 15 mM NaCl, 5 mM CaCl2, 0.05% PEG 8000, pH 8.15). Following a 15 minute preincubation period, the assay was initiated by the addition of 35 μl of the chromogenic substrate S-2288 (D-Ile-Pro-Arg-p-nitroanilide, Pharmacia Hepar Inc., 500 μM final concentration).
# T1 sequence (P00742 235-488 limits assumed): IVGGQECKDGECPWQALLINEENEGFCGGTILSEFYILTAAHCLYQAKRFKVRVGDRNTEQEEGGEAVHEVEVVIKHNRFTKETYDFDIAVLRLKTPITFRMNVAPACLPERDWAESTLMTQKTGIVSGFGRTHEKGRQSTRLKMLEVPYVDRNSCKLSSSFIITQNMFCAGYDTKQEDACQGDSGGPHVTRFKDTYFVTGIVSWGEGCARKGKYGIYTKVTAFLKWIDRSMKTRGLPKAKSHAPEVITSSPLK
# T1 sequence (P00742 41-179 partner limits assumed): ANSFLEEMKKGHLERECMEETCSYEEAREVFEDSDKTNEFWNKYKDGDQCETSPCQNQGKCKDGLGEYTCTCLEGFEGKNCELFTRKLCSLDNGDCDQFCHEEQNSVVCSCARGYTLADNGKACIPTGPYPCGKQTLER
row,Compound,Ki
1,"CC(C)N1CCC(NC(=O)c2cc(C(=O)NCCO)nn2Cc2cc(-c3ccc(Cl)s3)on2)CC1 [Example 27, 1-[5-(5-Chloro-thiophen-2-yl)-isoxazol-3-ylmethyl]-1H-pyrazole-3,5-dicarboxylic acid 3-[(2-hydroxy-ethyl)-amide] 5-[(1-isopropyl-piperidin-4-yl)-amide]]",88 nM
2,"CC(C)N1CCC(NC(=O)c2cc(C(=O)NCC(=O)O)nn2Cc2cc(-c3ccc(Cl)s3)on2)CC1 [Example 28, {[1-[5-(5-Chloro-thiophen-2-yl)-isoxazol-3-ylmethyl]-5-(1-isopropyl-piperidin-4-ylcarbamoyl)-1H-pyrazole-3-carbonyl]-amino}-acetic acid]",82 nM
3,"COCCN(CCOC)C(=O)c1cc(C(=O)NC2CCN(C(C)C)CC2)n(Cc2cc(-c3ccc(Cl)s3)on2)n1 [Example 31, 1-[5-(5-Chloro-thiophen-2-yl)-isoxazol-3-ylmethyl]-1H-pyrazole-3,5-dicarboxylic acid 3-[bis-(2-methoxy-ethyl)-amide] 5-[(1-isopropyl-piperidin-4-yl)-amide]]",180 nM
4,"CC(C)N1CCC(NC(=O)c2cc(C(=O)N(C)CC(=O)O)nn2Cc2cc(-c3ccc(Cl)s3)on2)CC1 [Example 33, {[1-[5-(5-Chloro-thiophen-2-yl)-isoxazol-3-ylmethyl]-5-(1-isopropyl-piperidin-4-ylcarbamoyl)-1H-pyrazole-3-carbonyl]-methyl-amino}-acetic acid]",82 nM
5,"CC(C)N1CCC(NC(=O)c2cc(C(=O)N3CCSCC3)nn2Cc2cc(-c3ccc(Cl)s3)on2)CC1 [Example 34, 2-[5-(5-Chloro-thiophen-2-yl)-isoxazol-3-ylmethyl]-5-(thiomorpholine-4-carbonyl)-2H-pyrazole-3-carboxylic acid (1-isopropyl-piperidin-4-yl)-amide]",108 nM
6,"CC(C)N1CCC(NC(=O)c2cc(C(=O)N3CCC(O)CC3)nn2Cc2cc(-c3ccc(Cl)s3)on2)CC1 [Example 35, 2-[5-(5-Chloro-thiophen-2-yl)-isoxazol-3-ylmethyl]-5-(4-hydroxy-piperidine-1-carbonyl)-2H-pyrazole-3-carboxylic acid (1-isopropyl-piperidin-4-yl)-amide]",163 nM
7,"CC(C)N1CCC(NC(=O)c2cc(C(=O)N3CCC(CO)CC3)nn2Cc2cc(-c3ccc(Cl)s3)on2)CC1 [Example 37, 2-[5-(5-Chloro-thiophen-2-yl)-isoxazol-3-ylmethyl]-5-(4-hydroxymethyl-piperidine-1-carbonyl)-2H-pyrazole-3-carboxylic acid (1-isopropyl-piperidin-4-yl)-amide]",195 nM
8,"CC(C)N1CCC(NC(=O)c2cc(C(=O)N3CCC(S(C)(=O)=O)C3)nn2Cc2cc(-c3ccc(Cl)s3)on2)CC1 (stereo not shown) [Example 39, 2-[5-(5-Chloro-thiophen-2-yl)-isoxazol-3-ylmethyl]-5-(3-methanesulfonyl-pyrrolidine-1-carbonyl)-2H-pyrazole-3-carboxylic acid (1-isopropyl-piperidin-4-yl)-amide]",145 nM
9,"CC(C)N1CCC(NC(=O)c2cc(C(=O)N(C)C3CCS(=O)(=O)C3)nn2Cc2cc(-c3ccc(Cl)s3)on2)CC1 (stereo not shown) [Example 40, 1-[5-(5-Chloro-thiophen-2-yl)-isoxazol-3-ylmethyl]-1H-pyrazole-3,5-dicarboxylic acid 3-[(1,1-dioxo-tetrahydro-1-thiophen-3-yl)-methyl-amide] 5-[(1-isopropyl-piperidin-4-yl)-amide]]",123 nM
10,"CC(C)N1CCC(NC(=O)c2cc(C(=O)N3CCNC(=O)C3)nn2Cc2cc(-c3ccc(Cl)s3)on2)CC1 [Example 41, 2-[5-(5-Chloro-thiophen-2-yl)-isoxazol-3-ylmethyl]-5-(3-oxo-piperazine-1-carbonyl)-2H-pyrazole-3-carboxylic acid (1-isopropyl-piperidin-4-yl)-amide]",81 nM
11,"CC(C)N1CCC(NC(=O)c2cc(C(=O)N3CCCOCC3)nn2Cc2cc(-c3ccc(Cl)s3)on2)CC1 [Example 42, 2-[5-(5-Chloro-thiophen-2-yl)-isoxazol-3-ylmethyl]-5-([1,4]oxazepane-4-carbonyl)-2H-pyrazole-3-carboxylic acid (1-isopropyl-piperidin-4-yl)-amide]",84 nM
12,"CC(C)N1CCC(NC(=O)c2cc(C(=O)NCCS(N)(=O)=O)nn2Cc2cc(-c3ccc(Cl)s3)on2)CC1 [Example 44, 1-[5-(5-Chloro-thiophen-2-yl)-isoxazol-3-ylmethyl]-1H-pyrazole-3,5-dicarboxylic acid 5-[(1-isopropyl-piperidin-4-yl)-amide] 3-[(2-sulfamoyl-ethyl)-amide]]",46 nM
13,"CC(C)N1CCC(NC(=O)c2cc(C(=O)NC3CC3)nn2Cc2cc(-c3ccc(Cl)s3)on2)CC1 [Example 45, 1-[5-(5-Chloro-thiophen-2-yl)-isoxazol-3-ylmethyl]-1H-pyrazole-3,5-dicarboxylic acid 3-cyclopropylamide 5-[(1-isopropyl-piperidin-4-yl)-amide]]",61 nM

# Now from value to compound:
row,Ki,Compound
1,155 nM,"CC(C)N1CCC(NC(=O)c2cc(-c3n[nH]c(=O)o3)nn2Cc2cc(-c3ccc(Cl)s3)on2)CC1 [Example 29, 2-[5-(5-Chloro-thiophen-2-yl)-isoxazol-3-ylmethyl]-5-(5-oxo-4,5-dihydro-[1,3,4]oxadiazol-2-yl)-2H-pyrazole-3-carboxylic acid (1-isopropyl-piperidin-4-yl)-amide]"
2,262 nM,"CC(C)N1CCC(NC(=O)c2cc(C(=O)N3CCN(CCO)CC3)nn2Cc2cc(-c3ccc(Cl)s3)on2)CC1 [Example 30, 2-[5-(5-Chloro-thiophen-2-yl)-isoxazol-3-ylmethyl]-5-[4-(2-hydroxy-ethyl)-piperazine-1-carbonyl]-2H-pyrazole-3-carboxylic acid (1-isopropyl-piperidin-4-yl)-amide]"
3,45 nM,"CC(C)N1CCC(NC(=O)c2cc(C(=O)OCCN3CCNC3=O)nn2Cc2cc(-c3ccc(Cl)s3)on2)CC1 [Example 32, 1-[5-(5-Chloro-thiophen-2-yl)-isoxazol-3-ylmethyl]-5-(1-isopropyl-piperidin-4-ylcarbamoyl)-1H-pyrazole-3-carboxylic acid 2-(2-oxo-imidazolidin-1-yl)-ethyl ester]"
4,122 nM,"CC(C)N1CCC(NC(=O)c2cc(C(=O)N3CCC(O)C3)nn2Cc2cc(-c3ccc(Cl)s3)on2)CC1 (stereo not shown) [Example 36, 2-[5-(5-Chloro-thiophen-2-yl)-isoxazol-3-ylmethyl]-5-(3-hydroxy-pyrrolidine-1-carbonyl)-2H-pyrazole-3-carboxylic acid (1-isopropyl-piperidin-4-yl)-amide]"
5,932 nM,"CC(C)N1CCC(NC(=O)c2cc(C(=O)N3CCC4(CCCC4)CC3)nn2Cc2cc(-c3ccc(Cl)s3)on2)CC1 [Example 38, 5-(8-Aza-spiro[4.5]decane-8-carbonyl)-2-[5-(5-chloro-thiophen-2-yl)-isoxazol-3-ylmethyl]-2H-pyrazole-3-carboxylic acid (1-isopropyl-piperidin-4-yl)-amide]"
6,72 nM,"CC(C)N1CCC(NC(=O)c2cc(C(=O)N3CCCC3C(F)(F)F)nn2Cc2cc(-c3ccc(Cl)s3)on2)CC1 (stereo not shown) [Example 43, 2-[5-(5-Chloro-thiophen-2-yl)-isoxazol-3-ylmethyl]-5-(2-trifluoromethyl-pyrrolidine-1-carbonyl)-2H-pyrazole-3-carboxylic acid (1-isopropyl-piperidin-4-yl)-amide]"
